From ChEMBL document CHEMBL1909046, “DrugMatrix in vitro pharmacology data”
pIC50: −log10 of the molar value.

Assays:
[1] = biological target: T1, C-X-C chemokine receptor type 2 (Homo sapiens, UniProt P25025); type: cell membranes, Membrane; conditions: cho-k1; further: in other assays of this panel Not Active means under 50% inhibition at 10 µM
T1 sequence (P25025 whole entry): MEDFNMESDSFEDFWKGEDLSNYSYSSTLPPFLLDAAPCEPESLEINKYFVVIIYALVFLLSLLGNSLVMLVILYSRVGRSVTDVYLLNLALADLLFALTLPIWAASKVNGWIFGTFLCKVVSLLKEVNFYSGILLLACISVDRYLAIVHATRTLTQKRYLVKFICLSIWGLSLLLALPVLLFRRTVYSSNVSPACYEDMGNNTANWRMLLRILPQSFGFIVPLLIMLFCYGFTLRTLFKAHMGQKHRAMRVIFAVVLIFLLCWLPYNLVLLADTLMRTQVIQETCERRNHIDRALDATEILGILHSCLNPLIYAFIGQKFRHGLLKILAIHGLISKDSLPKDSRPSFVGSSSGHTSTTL

[2] = DRUGMATRIX: Purinergic P2X radioligand binding (ligand: [3H] alpha, beta-Methylene-ATP); type: cell membranes, Oryctolagus cuniculus, New Zealand albino, Urinary bladder, Membrane; conditions: Not Active = under 50% inhibition at 10 µM
[3] = biological target: Prostaglandin G/H synthase 1 (Homo sapiens, UniProt P23219); test: biochemical; type: tissue-based, Platelet; conditions: for IC50: platelet;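 on all read-outs here: inhibition of COX-1 enzyme activity, with arachidonic acid supplied as substrate; in other assays of this panel Not Active means under 50% inhibition at 10 µM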
[4] = biological target: T2, Neuropeptide Y receptor type 2 (Homo sapiens, UniProt P49146); type: cell membranes, Membrane; conditions: kan-ts; further: in other assays of this panel Not Active means under 50% inhibition at 10 µM
T2 sequence (P49146 whole entry): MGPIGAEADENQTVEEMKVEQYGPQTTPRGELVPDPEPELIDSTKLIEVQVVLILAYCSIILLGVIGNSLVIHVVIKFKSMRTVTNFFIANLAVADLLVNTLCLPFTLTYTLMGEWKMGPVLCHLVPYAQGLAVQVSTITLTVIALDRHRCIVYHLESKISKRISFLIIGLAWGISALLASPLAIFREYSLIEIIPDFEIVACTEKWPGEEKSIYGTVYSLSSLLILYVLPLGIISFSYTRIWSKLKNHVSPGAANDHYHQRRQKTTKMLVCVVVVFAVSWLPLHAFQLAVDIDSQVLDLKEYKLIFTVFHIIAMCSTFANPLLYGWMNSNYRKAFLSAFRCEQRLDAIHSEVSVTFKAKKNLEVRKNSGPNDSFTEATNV

[5] = biological target: T3, Alpha-1A adrenergic receptor (Rattus norvegicus, UniProt P43140); test: DRUGMATRIX: Alpha-1A adrenergic receptor radioligand binding (ligand: prazosin); type: cell membranes, Wistar, Submaxillary gland, Membrane; conditions: Not Active = under 50% inhibition at 10 µM
T3 sequence (P43140 whole entry): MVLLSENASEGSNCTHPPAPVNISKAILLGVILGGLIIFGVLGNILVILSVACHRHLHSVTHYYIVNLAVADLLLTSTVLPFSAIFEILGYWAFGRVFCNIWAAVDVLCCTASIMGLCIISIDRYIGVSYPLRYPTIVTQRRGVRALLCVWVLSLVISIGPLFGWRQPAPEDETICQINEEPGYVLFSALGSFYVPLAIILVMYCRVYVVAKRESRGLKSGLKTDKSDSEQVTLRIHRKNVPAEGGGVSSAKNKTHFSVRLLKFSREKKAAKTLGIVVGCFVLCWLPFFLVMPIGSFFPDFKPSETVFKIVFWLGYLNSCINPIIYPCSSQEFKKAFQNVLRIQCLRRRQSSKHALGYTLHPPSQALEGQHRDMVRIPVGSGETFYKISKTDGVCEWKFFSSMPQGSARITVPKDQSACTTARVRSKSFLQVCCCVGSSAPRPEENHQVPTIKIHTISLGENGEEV

[6] = biological target: Protein phosphatase 3 catalytic subunit alpha (Homo sapiens, UniProt Q08209); parameters: species or system Escherichia coli;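 further: inhibition of calcineurin (PP2B) enzyme activity, measured with DiFMUP as the substrate; in other assays of this panel Not Active means under 50% inhibition at 10 µM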
[7] = biological target: T4, 5-hydroxytryptamine receptor 2C (Homo sapiens, UniProt P28335); test: DRUGMATRIX: Serotonin (5-Hydroxytryptamine) 5-HT2C radioligand binding (ligand: [3H] Mesulergine); type: cell membranes, CHO-K1, Membrane; conditions: cho-k1; Not Active = under 50% inhibition at 10 µM
T4 sequence (P28335 whole entry): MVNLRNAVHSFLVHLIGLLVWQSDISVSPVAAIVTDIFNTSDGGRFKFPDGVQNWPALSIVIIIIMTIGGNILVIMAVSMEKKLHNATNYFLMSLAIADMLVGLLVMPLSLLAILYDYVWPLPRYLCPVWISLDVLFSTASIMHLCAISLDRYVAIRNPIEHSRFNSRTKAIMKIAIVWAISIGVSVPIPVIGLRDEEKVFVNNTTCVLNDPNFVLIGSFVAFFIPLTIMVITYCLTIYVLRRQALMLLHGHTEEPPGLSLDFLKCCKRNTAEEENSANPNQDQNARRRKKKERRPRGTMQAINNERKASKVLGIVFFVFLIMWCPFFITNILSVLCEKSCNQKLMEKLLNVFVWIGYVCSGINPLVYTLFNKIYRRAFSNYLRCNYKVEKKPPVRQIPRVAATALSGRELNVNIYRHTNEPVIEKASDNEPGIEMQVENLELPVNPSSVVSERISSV

Interstitial collagenase = biological target: T5, Interstitial collagenase (Homo sapiens, UniProt P03956); test: biochemical; type: tissue-based, Rheumatoid synovial fibroblasts
T5 sequence (P03956 whole entry): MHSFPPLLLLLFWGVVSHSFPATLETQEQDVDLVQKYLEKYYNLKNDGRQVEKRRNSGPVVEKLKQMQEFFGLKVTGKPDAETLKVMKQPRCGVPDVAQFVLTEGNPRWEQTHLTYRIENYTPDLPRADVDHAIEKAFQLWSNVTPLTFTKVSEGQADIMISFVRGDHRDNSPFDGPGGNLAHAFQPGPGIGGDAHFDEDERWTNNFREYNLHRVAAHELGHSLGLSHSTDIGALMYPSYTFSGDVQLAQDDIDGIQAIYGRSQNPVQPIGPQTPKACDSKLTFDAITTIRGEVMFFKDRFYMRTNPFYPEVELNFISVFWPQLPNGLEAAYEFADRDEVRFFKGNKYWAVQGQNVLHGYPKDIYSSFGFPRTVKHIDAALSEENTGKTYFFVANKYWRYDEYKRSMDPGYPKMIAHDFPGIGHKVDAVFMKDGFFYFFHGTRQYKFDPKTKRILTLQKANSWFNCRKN

[8] = biological target: Protein kinase C alpha type (Homo sapiens, UniProt P17252); type: cell-based; conditions: sf9
[9] = DRUGMATRIX: GABAA, Flunitrazepam, Central radioligand binding (ligand: [3H] Flunitrazepam); type: cell membranes, Rattus norvegicus, Wistar, Brain, Membrane; conditions: Not Active = under 50% inhibition at 10 µM

Sequence of Prostaglandin G/H synthase 1 (P23219 whole entry): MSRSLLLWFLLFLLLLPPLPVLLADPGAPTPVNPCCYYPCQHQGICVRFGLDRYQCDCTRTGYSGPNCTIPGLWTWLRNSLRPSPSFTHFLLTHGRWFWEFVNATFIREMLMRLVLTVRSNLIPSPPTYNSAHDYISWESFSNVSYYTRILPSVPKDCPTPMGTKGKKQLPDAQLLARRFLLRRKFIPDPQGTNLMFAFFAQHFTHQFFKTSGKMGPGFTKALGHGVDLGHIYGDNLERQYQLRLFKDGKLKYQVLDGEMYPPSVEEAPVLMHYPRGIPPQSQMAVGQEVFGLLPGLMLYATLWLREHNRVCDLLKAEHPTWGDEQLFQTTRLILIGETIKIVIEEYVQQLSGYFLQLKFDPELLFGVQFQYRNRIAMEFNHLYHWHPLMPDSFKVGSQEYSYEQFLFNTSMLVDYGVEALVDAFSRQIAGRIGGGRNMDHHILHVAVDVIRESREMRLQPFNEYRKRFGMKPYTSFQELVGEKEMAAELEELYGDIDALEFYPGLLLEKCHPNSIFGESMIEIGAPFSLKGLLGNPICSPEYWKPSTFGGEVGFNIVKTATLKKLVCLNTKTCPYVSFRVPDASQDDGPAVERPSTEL

Row | SMILES | IC50 [1] | IC50 [2] | Ki [2] | pIC50 ([3]; read-out: IC50) | IC50 [4] | IC50 [5] | IC50 [6] | IC50 [7] | IC50 (Interstitial collagenase) | IC50 [8] | IC50 [9] | Ki [9] | IC50 [3]
1 | CN1C(C(=O)Nc2ccccn2)=C(O)c2sccc2S1(=O)=O [TENOXICAM] | Not Active | Not Active | Not Active | 5.94 | Not Active | Not Active | Not Active | Not Active | Not Active | Not Active | Not Active | Not Active | –
2 | COc1cc(NS(=O)(=O)c2ccc(N)cc2)nc(OC)n1 [SULFADIMETHOXINE] | Not Active | Not Active | Not Active | – | Not Active | Not Active | Not Active | Not Active | Not Active | Not Active | Not Active | Not Active | Not Active
3 | CC(=O)N[C@@H]1[C@H](Oc2c3cc4cc2Oc2ccc(cc2Cl)[C@@H](O[C@@H]2O[C@@H](CO)[C@@H](O)[C@H](O)[C@@H]2NC(C)=O)[C@@H]2NC(=O)[C@H](NC(=O)[C@@H]4NC(=O)[C@H]4NC(=O)[C@@H](Cc5ccc(c(Cl)c5)O3)NC(=O)[C@H](N)c3ccc(O)c(c3)Oc3cc(O)cc4c3)c3ccc(O)c(c3)-c3c(O[C@H]4O[C@H](CO)[C@@H](O)[C@@H](O)[C@@H]4O)cc(O)cc3[C@@H](C(=O)O)NC2=O)O[C@@H](CO)[C@@H](O)[C@@H]1O | Not Active | Not Active | Not Active | – | Not Active | Not Active | Not Active | Not Active | Not Active | Not Active | Not Active | Not Active | Not Active
4 | O=C1CCC(N2C(=O)c3ccccc3C2=O)C(=O)N1 (stereo unspecified) [THALIDOMIDE] | Not Active | Not Active | Not Active | – | Not Active | Not Active | Not Active | Not Active | Not Active | Not Active | Not Active | Not Active | Not Active
5 | CC[C@]1(O)C[C@@H]2CN(CCc3c([nH]c4ccccc34)[C@@](C(=O)OC)(c3cc4c(cc3OC)N(C)[C@H]3[C@@](O)(C(=O)OC)[C@H](OC(C)=O)[C@]5(CC)C=CCN6CC[C@]43[C@@H]65)C2)C1 [VINBLASTINE] | Not Active | Not Active | Not Active | – | Not Active | Not Active | Not Active | Not Active | Not Active | Not Active | Not Active | Not Active | Not Active
6 | CC1=C(CC(=O)O)c2cc(F)ccc2/C1=C\c1ccc([S+](C)[O-])cc1 (stereo unspecified) | Not Active | Not Active | Not Active | – | Not Active | Not Active | Not Active | Not Active | Not Active | Not Active | Not Active | Not Active | Not Active
7 | CC(C)C[C@H](NC(=O)[C@@H](O)[C@H](N)Cc1ccccc1)C(=O)O [UBENIMEX] | Not Active | Not Active | Not Active | – | Not Active | Not Active | Not Active | Not Active | Not Active | Not Active | Not Active | Not Active | Not Active
8 | CC(C)c1nc(CN(C)C(=O)N[C@H](C(=O)N[C@@H](Cc2ccccc2)C[C@H](O)[C@H](Cc2ccccc2)NC(=O)OCc2cncs2)C(C)C)cs1 [RITONAVIR] | Not Active | Not Active | Not Active | – | Not Active | Not Active | Not Active | Not Active | Not Active | Not Active | Not Active | Not Active | Not Active
9 | CC(=O)CC(c1ccccc1)c1c(O)c2ccccc2oc1=O (stereo unspecified) [WARFARIN] | Not Active | Not Active | Not Active | – | Not Active | Not Active | Not Active | Not Active | Not Active | Not Active | Not Active | Not Active | Not Active
10 | COCCCOc1ccnc(C[S+]([O-])c2nc3ccccc3[nH]2)c1C (stereo unspecified) [RABEPRAZOLE] | Not Active | Not Active | Not Active | – | Not Active | Not Active | Not Active | Not Active | Not Active | Not Active | Not Active | Not Active | Not Active
11 | N[C@H](CSC(=S)NCc1ccccc1)C(=O)O | Not Active | Not Active | Not Active | – | Not Active | Not Active | Not Active | Not Active | Not Active | Not Active | Not Active | Not Active | Not Active
12 | [H]/N=C(/N)N[C@H]1[C@H](O)[C@@H](O)[C@H](O[C@@H]2O[C@@H](C)[C@](O)(C=O)[C@H]2O[C@@H]2O[C@@H](CO)[C@H](O)[C@@H](O)[C@@H]2NC)[C@@H](N/C(N)=N\[H])[C@@H]1O [STREPTOMYCIN] | Not Active | Not Active | Not Active | – | Not Active | Not Active | Not Active | Not Active | Not Active | Not Active | Not Active | Not Active | Not Active
13 | CO[C@H]1/C=C/O[C@@]2(C)Oc3c(C)c(O)c4c(c3C2=O)C2=NC3(CCN(CC(C)C)CC3)NC2=C(NC(=O)/C(C)=C\C=C\[C@H](C)[C@H](O)[C@@H](C)[C@@H](O)[C@@H](C)[C@H](OC(C)=O)[C@@H]1C)C4=O [RIFABUTIN] | Not Active | Not Active | Not Active | – | Not Active | Not Active | Not Active | Not Active | Not Active | Not Active | Not Active | Not Active | Not Active
